Reference: patent publication US20250353842A1, “BICYCLIC AMINE CDK12 INHIBITORS” (Incyte Corporation, priority 2022, published 2025)

Target: CDK12 complexed with Cyclin K (Homo sapiens (Human), UniProt Q9NYV4)
Experiment: CDK enzymatic assay (HTRF, LANCE Ultra kinase assay)
Format: biochemical
Conditions: 60 minutes pre-incubation, 1 mM ATP
How it was run: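 GST-tagged human CDK12 co-expressed with full-length Cyclin K in baculovirus, pre-incubated 60 min with compound, then 1 mM ATP and 50 nM ULight-4E-BP1 peptide (final) in pH 7.5 HEPES buffer for 60-90 min at room temperature. EDTA/Eu-anti-phospho-4E-BP1 stop; 665/620 nm HTRF ratio normalized to DMSO and no-enzyme controls, IC50 from 3- or 4-parameter fit.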

CDK12 complexed with Cyclin K, sequence (Q9NYV4 whole entry): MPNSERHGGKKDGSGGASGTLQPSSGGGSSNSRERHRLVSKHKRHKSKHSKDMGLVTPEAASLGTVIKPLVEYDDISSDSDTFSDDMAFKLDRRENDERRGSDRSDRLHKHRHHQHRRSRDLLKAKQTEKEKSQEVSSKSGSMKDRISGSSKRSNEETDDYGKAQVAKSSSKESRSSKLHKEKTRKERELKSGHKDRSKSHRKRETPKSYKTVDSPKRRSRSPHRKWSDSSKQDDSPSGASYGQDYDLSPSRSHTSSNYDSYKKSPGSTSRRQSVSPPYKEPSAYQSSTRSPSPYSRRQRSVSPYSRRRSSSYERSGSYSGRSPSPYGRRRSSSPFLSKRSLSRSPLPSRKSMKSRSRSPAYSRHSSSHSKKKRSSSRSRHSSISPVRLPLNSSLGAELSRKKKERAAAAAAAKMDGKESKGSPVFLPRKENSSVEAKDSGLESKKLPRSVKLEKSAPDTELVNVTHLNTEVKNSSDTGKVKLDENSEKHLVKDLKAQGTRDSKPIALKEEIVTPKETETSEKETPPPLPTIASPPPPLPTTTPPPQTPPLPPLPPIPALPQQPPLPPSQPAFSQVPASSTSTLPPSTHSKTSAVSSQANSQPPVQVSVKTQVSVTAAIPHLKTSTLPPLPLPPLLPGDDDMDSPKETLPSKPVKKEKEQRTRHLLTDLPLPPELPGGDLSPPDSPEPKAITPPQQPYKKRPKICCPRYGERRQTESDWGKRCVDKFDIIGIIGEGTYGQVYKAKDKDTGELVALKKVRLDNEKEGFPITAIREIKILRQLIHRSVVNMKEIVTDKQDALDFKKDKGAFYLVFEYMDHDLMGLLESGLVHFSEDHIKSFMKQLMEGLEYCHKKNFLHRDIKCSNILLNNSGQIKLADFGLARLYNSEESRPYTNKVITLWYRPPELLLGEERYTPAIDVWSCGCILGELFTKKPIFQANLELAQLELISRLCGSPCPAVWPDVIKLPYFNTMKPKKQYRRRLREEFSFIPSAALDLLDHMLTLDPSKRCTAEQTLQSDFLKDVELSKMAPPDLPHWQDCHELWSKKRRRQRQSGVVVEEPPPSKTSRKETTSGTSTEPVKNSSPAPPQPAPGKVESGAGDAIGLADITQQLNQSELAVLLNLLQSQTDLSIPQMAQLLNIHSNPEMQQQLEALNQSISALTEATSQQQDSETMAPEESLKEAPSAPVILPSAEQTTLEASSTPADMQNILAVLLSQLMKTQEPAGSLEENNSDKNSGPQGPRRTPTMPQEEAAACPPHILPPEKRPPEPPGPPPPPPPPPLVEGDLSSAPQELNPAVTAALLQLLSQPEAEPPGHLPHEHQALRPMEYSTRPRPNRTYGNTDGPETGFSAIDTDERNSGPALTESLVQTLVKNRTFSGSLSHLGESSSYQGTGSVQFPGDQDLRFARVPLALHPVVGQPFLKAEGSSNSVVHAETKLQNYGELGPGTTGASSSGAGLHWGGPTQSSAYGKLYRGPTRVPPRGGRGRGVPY
CDK12 complexed with Cyclin K, sequence (O75909 whole entry partner): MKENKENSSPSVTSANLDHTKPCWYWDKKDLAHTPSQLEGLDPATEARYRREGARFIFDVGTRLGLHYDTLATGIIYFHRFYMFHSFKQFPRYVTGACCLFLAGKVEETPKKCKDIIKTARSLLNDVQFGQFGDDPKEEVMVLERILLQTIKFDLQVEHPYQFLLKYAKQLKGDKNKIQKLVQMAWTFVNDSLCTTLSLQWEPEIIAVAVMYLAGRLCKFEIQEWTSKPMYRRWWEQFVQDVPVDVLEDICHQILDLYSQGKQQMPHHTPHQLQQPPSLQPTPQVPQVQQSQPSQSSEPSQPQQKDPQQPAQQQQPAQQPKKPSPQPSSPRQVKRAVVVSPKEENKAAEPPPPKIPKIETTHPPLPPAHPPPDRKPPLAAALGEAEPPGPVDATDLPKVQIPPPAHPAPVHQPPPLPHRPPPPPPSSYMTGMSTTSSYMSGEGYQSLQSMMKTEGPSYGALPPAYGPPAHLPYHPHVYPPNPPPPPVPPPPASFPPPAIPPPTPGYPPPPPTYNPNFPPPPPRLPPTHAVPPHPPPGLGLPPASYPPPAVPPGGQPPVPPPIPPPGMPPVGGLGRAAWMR

| SMILES | IC50 [nM] |
| --- | --- |
| N#Cc1cnc(N[C@@H]2CCC[C@H](n3cnc4cc(F)cc(C#N)c43)C2)nc1-c1cnn(CC(F)F)c1 [Example 49, 1-((1S,3R)-3-((5-Cyano-4-(1-(2,2-difluoroethyl)-1H-pyrazol-4-yl)pyrimidin-2-yl)amino)cyclohexyl)-5-fluoro-1H-benzo[d]imidazole-7-carbonitrile] | < 50 |
| N#Cc1cnc(N[C@@H]2CCC[C@H](n3cnc4cccnc43)C2)nc1-c1cnn2c1OCCC2 [Example 25, 2-(((1R,3S)-3-(3H-Imidazo[4,5-b]pyridin-3-yl)cyclohexyl)amino)-4-(6,7-dihydro-5H-pyrazolo[5,1-b][1,3]oxazin-3-yl)pyrimidine-5-carbonitrile] | 50 to 500 |
| N#Cc1cnc2c(c1)ncn2[C@H]1CCC[C@@H](Nc2ncc(C#N)c(-c3cnn(CCN4CCOCC4)c3)n2)C1 [Example 60, 3-((1S,3R)-3-((5-Cyano-4-(1-(2-morpholinoethyl)-1H-pyrazol-4-yl)pyrimidin-2-yl)amino)cyclohexyl)-3H-imidazo[4,5-b]pyridine-6-carbonitrile] | 50 to 500 |
| N#Cc1cnc(N[C@@H]2CCC[C@H](n3cnc4cc(F)cc(Br)c43)C2)nc1-c1cnn(CC(F)F)c1 [Example 40, 2-(((1R,3S)-3-(7-Bromo-5-fluoro-1H-benzo[d]imidazol-1-yl)cyclohexyl)amino)-4-(1-(2,2-difluoroethyl)-1H-pyrazol-4-yl)pyrimidine-5-carbonitrile] | < 50 |
| N#Cc1cnc2c(c1)ncn2[C@H]1CCC[C@@H](Nc2ncc(C#N)c(-c3cnn(C4CCOCC4)c3)n2)C1 [Example 63, 3-((1S,3R)-3-((5-Cyano-4-(1-(tetrahydro-2H-pyran-4-yl)-1H-pyrazol-4-yl)pyrimidin-2-yl)amino)cyclohexyl)-3H-imidazo[4,5-b]pyridine-6-carbonitrile] | < 50 |
| N#Cc1cnc(N[C@@H]2CCC[C@H](n3cnc4cncc(Br)c43)C2)nc1-c1cnn(CC(F)F)c1 [Example 39, 2-(((1R,3S)-3-(7-Bromo-1H-imidazo[4,5-c]pyridin-1-yl)cyclohexyl)amino)-4-(1-(2,2-difluoroethyl)-1H-pyrazol-4-yl)pyrimidine-5-carbonitrile] | < 50 |
| N#Cc1cnc2c(c1)ncn2[C@H]1CCC[C@@H](Nc2ncc(C#N)c(-c3cnn(CCO)c3)n2)C1 [Example 68, 3-((1S,3R)-3-((5-Cyano-4-(1-(2-hydroxyethyl)-1H-pyrazol-4-yl)pyrimidin-2-yl)amino)cyclohexyl)-3H-imidazo[4,5-b]pyridine-6-carbonitrile] | < 50 |
| N#Cc1cnc(N[C@@H]2CCC[C@H](n3cnc4cncc(Cl)c43)C2)nc1-c1cnn(CC(F)F)c1 [Example 45, 2-(((1R,3S)-3-(7-Chloro-1H-imidazo[4,5-c]pyridin-1-yl)cyclohexyl)amino)-4-(1-(2,2-difluoroethyl)-1H-pyrazol-4-yl)pyrimidine-5-carbonitrile] | < 50 |
| COC(=O)c1ccc2ncn([C@H]3CCC[C@@H](Nc4ncc(C(F)(F)F)c(-c5cnn(CC(F)F)c5)n4)C3)c2n1 [Example 5, Methyl 3-((1S,3R)-3-((4-(1-(2,2-difluoroethyl)-1H-pyrazol-4-yl)-5-(trifluoromethyl)pyrimidin-2-yl)amino)cyclohexyl)-3H-imidazo[4,5-b]pyridine-5-carboxylate] | < 50 |
| N#Cc1ccc2ncn([C@H]3CCC[C@@H](Nc4ncc(C#N)c(-c5cnn(CC(F)F)c5)n4)C3)c2n1 [Example 47, 3-((1S,3R)-3-((5-Cyano-4-(1-(2,2-difluoroethyl)-1H-pyrazol-4-yl)pyrimidin-2-yl)amino)cyclohexyl)-3H-imidazo[4,5-b]pyridine-5-carbonitrile] | < 50 |
| N#Cc1cnc2c(c1)ncn2[C@H]1CCC[C@@H](Nc2ncc(C#N)c(-c3cnn(CC(F)(F)F)c3)n2)C1 [Example 62, 3-((1S,3R)-3-((5-Cyano-4-(1-(2,2,2-trifluoroethyl)-1H-pyrazol-4-yl)pyrimidin-2-yl)amino)cyclohexyl)-3H-imidazo[4,5-b]pyridine-6-carbonitrile] | < 50 |
| N#Cc1cnc(N[C@@H]2CCC[C@H](n3cnc4cccc(C#N)c43)C2)nc1-c1cnn(CC(F)F)c1 [13/13A, 1-((1S,3R)-3-((5-Cyano-4-(1-(2,2-difluoroethyl)-1H-pyrazol-4-yl)pyrimidin-2-yl)amino)cyclohexyl)-1H-benzo[d]imidazole-7-carbonitrile] | < 50 |
| N#Cc1cnc(N[C@@H]2CCC[C@H](n3cnc4cccnc43)C2)nc1-c1cnn2c1CCC2 [Example 18, 2-(((1R,3S)-3-(3H-Imidazo[4,5-b]pyridin-3-yl)cyclohexyl)amino)-4-(5,6-dihydro-4H-pyrrolo[1,2-b]pyrazol-3-yl)pyrimidine-5-carbonitrile] | < 50 |
| N#Cc1cnc(N[C@@H]2CCC[C@H](n3cnc4cccnc43)C2)nc1-c1c[nH]nc1C1CC1 [Example 21, 2-(((1R,3S)-3-(3H-Imidazo[4,5-b]pyridin-3-yl)cyclohexyl)amino)-4-(3-cyclopropyl-1H-pyrazol-4-yl)pyrimidine-5-carbonitrile] | < 50 |
| N#Cc1cc2ncn([C@H]3CCC[C@@H](Nc4ncc(C#N)c(-c5cnn(CC(F)F)c5)n4)C3)c2[n+]([O-])c1 [Example 53, 6-Cyano-3-((1S,3R)-3-((5-cyano-4-(1-(2,2-difluoroethyl)-1H-pyrazol-4-yl)pyrimidin-2-yl)amino)cyclohexyl)-3H-imidazo[4,5-b]pyridine 4-oxide] | < 50 |
| N#Cc1cnc(N[C@@H]2CCC[C@H](n3cnc4cncc(C#N)c43)C2)nc1-c1cnn(C2CC2)c1 [Example 34, 1-((1S,3R)-3-((5-Cyano-4-(1-cyclopropyl-1H-pyrazol-4-yl)pyrimidin-2-yl)amino)cyclohexyl)-1H-imidazo[4,5-c]pyridine-7-carbonitrile] | < 50 |

Next, values leading:

| IC50 [nM] | SMILES |
| --- | --- |
| 50 to 500 | Cc1c(Nc2nc(N[C@@H]3CCC[C@H](n4cnc5cc(C#N)cnc54)C3)ncc2C#N)cnn1C [Example 30, 3-((1S,3R)-3-((5-Cyano-4-((1,5-dimethyl-1H-pyrazol-4-yl)amino)pyrimidin-2-yl)amino)cyclohexyl)-3H-imidazo[4,5-b]pyridine-6-carbonitrile] |
| < 50 | N#Cc1cnc2c(c1)ncn2[C@H]1CCC[C@@H](Nc2ncc(C#N)c(-c3cnn(C4CC4)c3)n2)C1 [Example 71, 3-((1S,3R)-3-((5-Cyano-4-(1-cyclopropyl-1H-pyrazol-4-yl)pyrimidin-2-yl)amino)cyclohexyl)-3H-imidazo[4,5-b]pyridine-6-carbonitrile] |
| < 50 | N#Cc1cnc2c(c1)ncn2[C@H]1CCC[C@@H](Nc2ncc(C#N)c(-c3cnn(-c4ccccc4)c3)n2)C1 [Example 65, 3-((1S,3R)-3-((5-Cyano-4-(1-phenyl-1H-pyrazol-4-yl)pyrimidin-2-yl)amino)cyclohexyl)-3H-imidazo[4,5-b]pyridine-6-carbonitrile] |
| < 50 | Cc1c(-c2nc(N[C@@H]3CCC[C@H](n4cnc5cc(C#N)cnc54)C3)ncc2C#N)cnn1C [Example 89, 3-((1S,3R)-3-((5-Cyano-4-(1,5-dimethyl-1H-pyrazol-4-yl)pyrimidin-2-yl)amino)cyclohexyl)-3H-imidazo[4,5-b]pyridine-6-carbonitrile] |
| > 500 | Cn1nccc1-c1nc(N[C@@H]2CCC[C@H](n3cnc4cccnc43)C2)ncc1C#N [Example 22, 2-(((1R,3S)-3-(3H-Imidazo[4,5-b]pyridin-3-yl)cyclohexyl)amino)-4-(1-methyl-1H-pyrazol-5-yl)pyrimidine-5-carbonitrile] |
| < 50 | N#Cc1cnc(N[C@@H]2CCC[C@H](n3cnc4cnc(Cl)c(Br)c43)C2)nc1-c1cnn(CC(F)F)c1 [Example 42, 2-(((1R,3S)-3-(7-Bromo-6-chloro-1H-imidazo[4,5-c]pyridin-1-yl)cyclohexyl)amino)-4-(1-(2,2-difluoroethyl)-1H-pyrazol-4-yl)pyrimidine-5-carbonitrile] |
| < 50 | N#Cc1cc2ncn([C@H]3CCC[C@@H](Nc4ncc(C#N)c(-c5cnn(CC(F)F)c5)n4)C3)c2cn1 [Example 88, 3-((1S,3R)-3-((5-Cyano-4-(1-(2,2-difluoroethyl)-1H-pyrazol-4-yl)pyrimidin-2-yl)amino)cyclohexyl)-3H-imidazo[4,5-c]pyridine-6-carbonitrile] |
| < 50 | N#Cc1cnc(N[C@@H]2CCC[C@H](n3cnc4ccccc43)C2)nc1-c1cnn(CC(F)F)c1 [Example 3, 2-(((1R,3S)-3-(1H-Benzo[d]imidazol-1-yl)cyclohexyl)amino)-4-(1-(2,2-difluoroethyl)-1H-pyrazol-4-yl)pyrimidine-5-carbonitrile] |
| < 50 | FC(F)Cn1cc(-c2nc(N[C@@H]3CCC[C@H](n4cnc5cc(C(F)(F)F)cnc54)C3)ncc2C(F)(F)F)cn1 [Example 4, 4-(1-(2,2-Difluoroethyl)-1H-pyrazol-4-yl)-5-(trifluoromethyl)-N-((1R,3S)-3-(6-(trifluoromethyl)-3H-imidazo[4,5-b]pyridin-3-yl)cyclohexyl)pyrimidin-2-amine] |
| < 50 | N#Cc1ccc2c(c1)ncn2[C@H]1CCC[C@@H](Nc2ncc(C#N)c(-c3cnn(CC(F)F)c3)n2)C1 [Example 86, 1-((1S,3R)-3-((5-Cyano-4-(1-(2,2-difluoroethyl)-1H-pyrazol-4-yl)pyrimidin-2-yl)amino)cyclohexyl)-1H-benzo[d]imidazole-5-carbonitrile] |
| < 50 | Cn1cc(-c2nc(N[C@@H]3CCC[C@H](n4cnc5cc(C#N)cnc54)C3)ncc2C#N)cn1 [Example 64, 3-((1S,3R)-3-((5-Cyano-4-(1-methyl-1H-pyrazol-4-yl)pyrimidin-2-yl)amino)cyclohexyl)-3H-imidazo[4,5-b]pyridine-6-carbonitrile] |
| > 500 | Cc1nn(C)cc1-c1nc(N[C@@H]2CCC[C@H](n3cnc4cccnc43)C2)ncc1C#N [Example 19, 2-(((1R,3S)-3-(3H-Imidazo[4,5-b]pyridin-3-yl)cyclohexyl)amino)-4-(1,3-dimethyl-1H-pyrazol-4-yl)pyrimidine-5-carbonitrile] |
